Test results reported in patent US8822468B2 (Novartis AG, priority 2008, dated 2014).

Each molecule was assayed against T1, cMET receptor tyrosine kinase (GST-cMET (969-1390)) (Homo sapiens, UniProt P08581) (assay: EPK cMET profiling assay (LanthaScreen TR-FRET antibody based kinase phosphorylation assay)). Conditions: purified recombinant GST-cMET (969-1390), 2 μM ATP, 50 nM Fluorescein-PolyEAY, 60 minutes at room temperature; read-out: c-Met IC50.
T1 construct: made in house
T1 sequence (P08581 969-1390): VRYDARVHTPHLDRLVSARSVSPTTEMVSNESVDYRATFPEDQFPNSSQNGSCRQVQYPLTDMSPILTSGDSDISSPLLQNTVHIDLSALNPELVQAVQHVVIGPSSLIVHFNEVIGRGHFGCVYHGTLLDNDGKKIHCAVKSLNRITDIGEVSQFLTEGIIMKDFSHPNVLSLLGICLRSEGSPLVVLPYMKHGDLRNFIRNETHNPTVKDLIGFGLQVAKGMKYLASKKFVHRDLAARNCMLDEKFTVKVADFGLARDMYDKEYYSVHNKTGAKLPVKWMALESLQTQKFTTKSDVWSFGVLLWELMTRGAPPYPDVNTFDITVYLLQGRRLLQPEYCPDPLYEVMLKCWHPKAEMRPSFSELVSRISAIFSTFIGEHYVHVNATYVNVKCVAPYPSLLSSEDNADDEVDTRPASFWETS
Format: biochemical
Procedure, shortened: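 Compounds tested at eight final concentrations from 10 down to 0.003 µM against affinity-purified GST-cMET (969-1390, 0.3 nM) with 2 µM ATP and 50 nM fluorescein-PolyEAY in Tris buffer with MgCl2 and MnCl2, 1 h at room temperature. After EDTA stop, phosphoproduct detected by LanthaScreen TR-FRET with Tb-PY20 antibody, end-point measurement.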
Work on `O[C@H]1CCN(c2ccc3ncc(Cc4ccc5ncccc5c4)n3n2)C1` [Example 107, (S)-1-(3-Quinolin-6-ylmethyl-imidazo[1,2-b]pyridazin-6-yl)-pyrrolidin-3-ol] yielded an IC50 of 20 nM. `O[C@@H]1CCN(c2ccc3ncc(Cc4ccc5ncccc5c4)n3n2)C1` [Example 108, (R)-1-(3-Quinolin-6-ylmethyl-imidazo[1,2-b]pyridazin-6-yl)-pyrrolidin-3-ol] was tested, and the IC50 was 9.8 nM. Molecule `O=C1CCN(c2ccc3ncc(Cc4ccc5ncccc5c4)n3n2)CCN1` [Example 109, 1-(3-Quinolin-6-ylmethyl-imidazo[1,2-b]pyridazin-6-yl)-[1,4]diazepan-5-one] has an IC50 of 62 nM. For `c1cnc2ccc(Cc3cnc4ccc(N5CCC6(CC5)OCCO6)nn34)cc2c1` [Example 110, 6-[6-(1,4-Dioxa-8-aza-spiro[4.5]dec-8-yl)-imidazo[1,2-b]pyridazin-3-ylmethyl]-quinoline], the IC50 was 42 nM. `CC1CCCCN1c1ccc2ncc(Cc3ccc4ncccc4c3)n2n1` (centres unmarked) [Example 111, 6-[6-(2-Methyl-piperidin-1-yl)-imidazo[1,2-b]pyridazin-3-ylmethyl]-quinoline] gave an IC50 of 340 nM. For `Clc1cccc(Sc2ccc3ncc(Cc4ccc5ncccc5c4)n3n2)c1` [Example 112, 6-[6-(3-Chloro-phenylsulfanyl)-imidazo[1,2-b]pyridazin-3-ylmethyl]-quinoline], the IC50 was 220 nM. With `Clc1cccc(Oc2ccc3ncc(Cc4ccc5ncccc5c4)n3n2)c1` [Example 113, 6-[6-(3-Chloro-phenoxy)-imidazo[1,2-b]pyridazin-3-ylmethyl]-quinoline] the IC50 was 84 nM. Molecule `FC(F)(F)CNc1ccc2ncc(Cc3ccc4ncccc4c3)n2n1` [Example 114, (3-Quinolin-6-ylmethyl-imidazo[1,2-b]pyridazin-6-yl)-(2,2,2-trifluoro-ethyl)-amine] has an IC50 of 56 nM. `c1cnc2ccc(Cc3cnc4ccc(-n5ccnc5)nn34)cc2c1` [Example 115, 6-(6-Imidazol-1-yl-imidazo[1,2-b]pyridazin-3-ylmethyl)-quinoline] showed an IC50 of 95 nM. `Cc1nccn1-c1ccc2ncc(Cc3ccc4ncccc4c3)n2n1` [Example 116, 6-[6-(2-Methyl-imidazol-1-yl)-imidazo[1,2-b]pyridazin-3-ylmethyl]-quinoline] gave an IC50 of 980 nM. For `c1ccc(CN2CCC(Nc3ccc4ncc(Cc5ccc6ncccc6c5)n4n3)C2)cc1` (centres unmarked) [Example 117, (1-Benzyl-pyrrolidin-3-yl)-(3-quinolin-6-ylmethyl-imidazo[1,2-b]pyridazin-6-yl)-amine], the IC50 was 630 nM. With `Cc1cn(-c2ccc3ncc(Cc4ccc5ncccc5c4)n3n2)cn1` [Example 118, 6-[6-(4-Methyl-imidazol-1-yl)-imidazo[1,2-b]pyridazin-3-ylmethyl]-quinoline] the IC50 was 220 nM. For `O=C1CCN(c2ccc3ncc(Cc4ccc5ncccc5c4)n3n2)CC1` [Example 120, 1-(3-Quinolin-6-ylmethyl-imidazo[1,2-b]pyridazin-6-yl)-piperidin-4-one], the IC50 was 69 nM. In the case of `Clc1cccc(Nc2ccc3ncc(Cc4ccc5ncccc5c4)n3n2)c1` [Example 121, (3-Chloro-phenyl)-(3-quinolin-6-ylmethyl-imidazo[1,2-b]pyridazin-6-yl)-amine], the IC50 is reported as 20 nM. `c1ccc(Nc2ccc3ncc(Cc4ccc5ncccc5c4)n3n2)cc1` [Example 122, Phenyl-(3-quinolin-6-ylmethyl-imidazo[1,2-b]pyridazin-6-yl)-amine] gave an IC50 of 73 nM. Molecule `CCOc1ccc2ncc(Cc3ccc4ncccc4c3)n2n1` [Example 123, 6-(6-ethoxy-imidazo[1,2-b]pyridazin-3-ylmethyl)-quinoline] has an IC50 of 87 nM. `F[C@@H]1CCN(c2ccc3ncc(Cc4ccc5ncccc5c4)n3n2)C1` [Example 124, 6-[6-((R)-3-fluoro-pyrrolidin-1-yl)-imidazo[1,2-b]pyridazin-3-ylmethyl]-quinoline] showed an IC50 of 180 nM. `F[C@H]1CCN(c2ccc3ncc(Cc4ccc5ncccc5c4)n3n2)C1` [Example 125, 6-[6-((S)-3-Fluoro-pyrrolidin-1-yl)-imidazo[1,2-b]pyridazin-3-ylmethyl]-quinoline] gave an IC50 of 130 nM. With `c1cnc2ccc(Cc3cnc4ccc(Nc5ccc(CN6CCCCC6)cc5)nn34)cc2c1` [Example 126, (4-Piperidin-1-ylmethyl-phenyl)-(3-quinolin-6-ylmethyl-imidazo[1,2-b]pyridazin-6-yl)-amine] the IC50 was 16 nM. Molecule `FC(F)(F)c1cccc(Nc2ccc3ncc(Cc4ccc5ncccc5c4)n3n2)c1` [Example 127, (3-Quinolin-6-ylmethyl-imidazo[1,2-b]pyridazin-6-yl)-(3-trifluoromethyl-phenyl)-amine] has an IC50 of 90 nM. `Clc1ccccc1Nc1ccc2ncc(Cc3ccc4ncccc4c3)n2n1` [Example 128, (2-Chloro-phenyl)-(3-quinolin-6-ylmethyl-imidazo[1,2-b]pyridazin-6-yl)-amine] showed an IC50 of 29 nM. Molecule `c1cncc(Nc2ccc3ncc(Cc4ccc5ncccc5c4)n3n2)c1` [Example 129, Pyridin-3-yl-(3-quinolin-6-ylmethyl-imidazo[1,2-b]pyridazin-6-yl)-amine] has an IC50 of 69 nM. In the case of `c1cnc2ccc(Cc3cnc4ccc(Nc5ccncn5)nn34)cc2c1` [Example 131, Pyrimidin-4-yl-(3-quinolin-6-ylmethyl-imidazo[1,2-b]pyridazin-6-yl)-amine], the IC50 is reported as 180 nM. `CCn1nccc1Nc1ccc2ncc(Cc3ccc4ncccc4c3)n2n1` [Example 132, (2-Ethyl-2H-pyrazol-3-yl)-(3-quinolin-6-ylmethyl-imidazo[1,2-b]pyridazin-6-yl)-amine] showed an IC50 of 50 nM. `c1cnc2ccc(Cc3cnc4ccc(-n5cccn5)nn34)cc2c1` [Example 134, 6-(6-Pyrazol-1-yl-imidazo[1,2-b]pyridazin-3-ylmethyl)-quinoline] was tested, and the IC50 was 570 nM. `Clc1cccc(Nc2ccc3ncc(Cc4ccc5ncccc5c4)n3n2)c1Cl` [Example 136, (2,3-Dichloro-phenyl)-(3-quinolin-6-ylmethyl-imidazo[1,2-b]pyridazin-6-yl)-amine] was tested, and the IC50 was 350 nM. Work on `Fc1ccc(Nc2ccc3ncc(Cc4ccc5ncccc5c4)n3n2)cc1Cl` [Example 137, (3-Chloro-4-fluoro-phenyl)-(3-quinolin-6-ylmethyl-imidazo[1,2-b]pyridazin-6-yl)-amine] yielded an IC50 of 100 nM. `CN(c1cccc(Cl)c1)c1ccc2ncc(Cc3ccc4ncccc4c3)n2n1` [Example 138, (3-Chloro-phenyl)-methyl-(3-quinolin-6-ylmethyl-imidazo[1,2-b]pyridazin-6-yl)-amine] gave an IC50 of 960 nM. With `CS(=O)(=O)c1cccc(Nc2ccc3ncc(Cc4ccc5ncccc5c4)n3n2)c1` [Example 139, (3-Methanesulfonyl-phenyl)-(3-quinolin-6-ylmethyl-imidazo[1,2-b]pyridazin-6-yl)-amine] the IC50 was 130 nM. `COc1cccc(Nc2ccc3ncc(Cc4ccc5ncccc5c4)n3n2)c1` [Example 140, (3-Methoxy-phenyl)-(3-quinolin-6-ylmethyl-imidazo[1,2-b]pyridazin-6-yl)-amine] showed an IC50 of 310 nM. Work on `[2H]C([2H])(c1ccc2ncccc2c1)c1cnc2ccc(Cl)nn12` [Example 142, 6-[(6-Chloro-imidazo[1,2-b]pyridazin-3-yl)-dideutero-methyl]-quinoline] yielded an IC50 of 210 nM. With `[2H]C([2H])(c1ccc2ncccc2c1)c1cnc2ccc(-c3cnn(C)c3)nn12` [Example 143, 6{Dideutero-[6-(1-methyl-1H-pyrazol-4-yl)-imidazo[1,2-b]pyridazin-3-ylmethyl]}-quinoline] the IC50 was 44 nM. `O=C(NCCN1CCCC1)c1ccc(-c2ccc3ncc(Cc4ccc5ncccc5c4)n3n2)cc1Cl` [Example 144, 2-Chloro-N-(2-pyrrolidin-1-yl-ethyl)-4-(3-quinolin-6-ylmethyl-imidazo[1,2-b]pyridazin-6-yl)benzamide] showed an IC50 of 3.2 nM. Work on `CN1CC(n2cc(-c3ccc4ncc(Cc5cc6cccnc6cc5F)n4n3)cn2)C1` [Example 146, 7-Fluoro-6-{6-[1-(1-methyl-azetidin-3-yl)-1H-pyrazol-4-yl]-imidazo[1,2-b]pyridazin-3-ylmethyl}-quinoline] yielded an IC50 of 68 nM. Molecule `OCCN1CCC(n2cc(-c3ccc4ncc(Cc5cc6cccnc6cc5F)n4n3)cn2)CC1` [Example 147, 2-(4-{4-[3-(7-Fluoro-quinolin-6-ylmethyl)-imidazo[1,2-b]pyridazin-6-yl]-pyrazol-1-yl}-piperidin-1-yl)-ethanol] has an IC50 of 82 nM. With `CCN1CCC(n2cc(-c3ccc4ncc(Cc5cc6cccnc6cc5F)n4n3)cn2)CC1` [Example 148, 6-{6-[1-(1-Ethyl-piperidin-4-yl)-1H-pyrazol-4-yl]-imidazo[1,2-b]pyridazin-3-ylmethyl}-7-fluoro-quinoline] the IC50 was 16 nM. `Fc1cc2ncccc2cc1Cc1cnc2ccc(-c3cnn(C4CCN(CC(F)(F)F)CC4)c3)nn12` [Example 149, 7-Fluoro-6-(6-{1-[1-(2,2,2-trifluoro-ethyl)-piperidin-4-yl]-1H-pyrazol-4-yl}-imidazo[1,2-b]pyridazin-3-ylmethyl)-quinoline] gave an IC50 of 31 nM. Molecule `Cn1cc(-c2ccc3ncc(Cc4ccc5[nH]ncc5c4)n3n2)cn1` [Example 150, 3-(1H-Indazol-5-ylmethyl)-6-(1-methyl-1H-pyrazol-4-yl)-imidazo[1,2-b]pyridazine] has an IC50 of 56 nM. In the case of `Cn1cc(-c2ccc3ncc([C@H](O)c4ccc5ncccc5c4)n3n2)cn1` [Example 151, (R)-[6-(1-Methyl-1H-pyrazol-4-yl)-imidazo[1,2-b]pyridazin-3-yl]-quinolin-6-yl-methanol], the IC50 is reported as 64 nM. `Cn1cc(-c2ccc3ncc([C@@H](O)c4ccc5ncccc5c4)n3n2)cn1` [Example 152, (S)-[6-(1-Methyl-1H-pyrazol-4-yl)-imidazo[1,2-b]pyridazin-3-yl]-quinolin-6-yl-methanol] showed an IC50 of 890 nM. `C=C(c1ccc2ncccc2c1)c1cnc2ccc(-c3cnn(C)c3)nn12` [Example 155, 6-{1-[6-(1-Methyl-1H-pyrazol-4-yl)-imidazo[1,2-b]pyridazin-3-yl]-vinyl}-quinoline] was tested, and the IC50 was 860 nM.
